Assay in all cases: NCI anticancer screen, dose series, 48 h
In experiment [1] the test system is OVCAR-5.
Experiment [2] deals with Malme-3M.
The test system of experiment [3] is NCI-H23.
For experiment [4], the system named is SNB-19.
The test system of experiment [5] is COLO 205.
Experiment [6] deals with TK-10.
The test system of experiment [7] is DMS-114.
Experiment [8] has as its system HOP-62.
Experiment [9] concerns A498.
Experiment [10] has as its system HCT-15.
For experiment [11], the system named is OVCAR-3.
Experiment [12] relates to MOLT-4.
Experiment [13] relates to KM12.
The test system of experiment [14] is CAKI-1.
Experiment [15] deals with IGROV-1.
Experiment [16] concerns M14.
The subject of experiment [17] is EKVX.
Experiment [18] deals with HL-60.
For experiment [19], the system named is K562.
Experiment [20] deals with SK-OV-3.

The record followed here is ChEMBL document CHEMBL1201862, “PubChem BioAssay data set” (2004).

SMILES strings stand for the structures.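 Briefly, cells in 96-well plates were exposed to five compound concentrations for 48 h, and endpoints were estimated by linear interpolation. Here, GI50 denotes the concentration required for 50% inhibition of growth.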 Active and inactive are the calls of the source. Rule as the data show it: active = GI50 up to about 1.1 µM and inactive = higher.

`COc1cc2cc[n+]3c(C)c4cc(OC)c(OC)cc4c([O-])c3c2cc1OC`: the GI50 was > 100 µM (inactive) in [1]; 26.9 µM (inactive) in [2]; 87.7 µM (inactive) in [3]; > 100 µM (inactive) in experiment [4]; 12.4 µM (inactive) in experiment [5]; > 100 µM (inactive) in [6]. For the same compound, the GI50 in [7] was 30.3 µM (inactive); in experiment [8], > 100 µM (inactive); in experiment [9], > 100 µM (inactive); in experiment [10], more than 100 µM; in [11] it was 3.44 µM (inactive); in experiment [12], 48.8 µM (inactive). In addition, the GI50 in [13] is 70.1 µM (inactive); in experiment [14], > 100 µM (inactive); in experiment [15], 25.7 µM (inactive); in [16], > 100 µM (inactive); in experiment [17], > 100 µM (inactive); in experiment [18], 16.9 µM (inactive). In addition, the GI50 in [19] is 64.3 µM (inactive); in experiment [20] it was > 100 µM (inactive).
Take `C[C@@H]1C[C@]2(C[C@@H](C)[C@H]3C(C[C@@]4(C)CCC[C@@H]5C6=C[C@H](CCC34C)OC6=CC(=O)OC5(C)C)O2)OC1=O` (stereo partly drawn): the GI50 in [1], in [3], in experiment [4], in experiment [5], in [7] and in [8] was > 51.5 µM (inactive) in each case. Besides, the GI50 is > 51.5 µM (inactive) in [9]; more than 51.5 µM in [10]; > 51.5 µM (inactive) in experiment [11]; > 51.5 µM (inactive) in experiment [12]; > 51.5 µM (inactive) in experiment [13]; > 51.5 µM (inactive) in experiment [14]. Besides, the GI50 in experiment [15], in [17], in experiment [18], in experiment [19] and in [20] was > 51.5 µM (inactive) throughout.
For `CCOC(=O)c1ccc(N2C(=O)/C(=C/c3ccc(N(CCC#N)CCC#N)cc3)N=C2c2cc([N+](=O)[O-])ccc2Cl)cc1`, the GI50 in experiment [1], in experiment [2], in experiment [3], in [4], in experiment [5] and in experiment [6] was > 100 µM (inactive) in each case. In addition, the GI50 in [7] was > 100 µM (inactive); in [8] it was > 100 µM (inactive); in experiment [10], more than 100 µM; in experiment [11] it was > 100 µM (inactive); in experiment [12] it was > 100 µM (inactive); in experiment [13] it was > 100 µM (inactive). Further, the GI50 in experiment [14], in [15], in experiment [17], in experiment [19] and in experiment [20] was > 100 µM (inactive) in each case.
With `CCOC(=O)C1=C(C)N(C2OC(COC(C)=O)C(OC(C)=O)C(OC(C)=O)C2OC(C)=O)C(=O)NC1c1ccccc1` (stereo not drawn), the GI50 in [1], in [2], in experiment [3], in experiment [4], in experiment [5] and in experiment [7] was > 100 µM (inactive) in each case. Also, the GI50 in experiment [8] is > 100 µM (inactive); in [9], > 100 µM (inactive); in experiment [10], more than 100 µM; in [11], > 100 µM (inactive); in experiment [12], 99.1 µM (inactive); in experiment [13] it was > 100 µM (inactive). Besides, the GI50 in experiment [14] was 83.9 µM (inactive); in [15] it was > 100 µM (inactive); in experiment [16], > 100 µM (inactive); in [17], > 100 µM (inactive); in experiment [18] it was > 100 µM (inactive); in experiment [19], > 100 µM (inactive). Also, in [20], the GI50 is > 100 µM (inactive).
As for `O=C1C(CO)=C[C@H](O)[C@H]2O[C@@H]12`, the GI50 in experiment [1] is 264 µM (inactive); in experiment [2], 137 µM (inactive); in experiment [3] it was 238 µM (inactive); in experiment [4] it was 419 µM (inactive); in experiment [5], 111 µM (inactive); in experiment [7], 137 µM (inactive). Further, the GI50 in experiment [8] is 497 µM (inactive); in experiment [9], 234 µM (inactive); in experiment [10], 124 µM; in [11], 177 µM (inactive); in experiment [12] it was 133 µM (inactive); in [13] it was 83.9 µM (inactive). In addition, the GI50 was 253 µM (inactive) in experiment [14]; 182 µM (inactive) in experiment [15]; 121 µM (inactive) in experiment [17]; 78.3 µM (inactive) in experiment [18]; 163 µM (inactive) in experiment [19]; 330 µM (inactive) in experiment [20].
On to `Cc1nn(-c2ccccc2)c(S)c1C(=O)c1ccccc1`, for which the GI50 was 62.2 µM (inactive) in experiment [1]; > 100 µM (inactive) in experiment [2]; 43.5 µM (inactive) in [3]; 41 µM (inactive) in experiment [4]; 89.3 µM (inactive) in [5]; 31.9 µM (inactive) in experiment [6]. In addition, the GI50 is 26.4 µM (inactive) in [7]; 21 µM (inactive) in experiment [9]; 34.6 µM in experiment [10]; 24.4 µM (inactive) in experiment [12]; 33 µM (inactive) in experiment [13]; > 100 µM (inactive) in experiment [14]. The GI50 was 51.2 µM (inactive) in [15]; 31.1 µM (inactive) in [16]; 18.6 µM (inactive) in experiment [17]; 32.1 µM (inactive) in [18]; 39.8 µM (inactive) in experiment [19]; > 100 µM (inactive) in [20].
As to `CC(=O)c1ccc(Oc2ccc(/C(C)=N\N=C(N)N)cc2)cc1`, the GI50 in [1] is 4.68 µM (inactive); in [2], 1.97 µM (inactive); in experiment [3], 3.75 µM (inactive); in experiment [4] it was 10.7 µM (inactive); in experiment [5], 1.67 µM (inactive); in experiment [6], 3.28 µM (inactive). In addition, the GI50 in experiment [7] is 1.43 µM (inactive); in experiment [8], 2.26 µM (inactive); in experiment [9], 1.77 µM (inactive); in experiment [10] it was 2.17 µM; in experiment [11], 1.99 µM (inactive); in experiment [12], 2.25 µM (inactive). In addition, the GI50 in experiment [15] was 5.62 µM (inactive); in experiment [16] it was 1.5 µM (inactive); in experiment [17], 4.51 µM (inactive); in experiment [20], 2.83 µM (inactive).
`CC1=NN(C(=O)c2ccc(C)cc2)C(=O)C1/N=N/c1ccccc1C(=O)O` (stereo not drawn): the GI50 in experiment [1], in experiment [2], in experiment [3], in experiment [4], in experiment [5] and in experiment [7] was > 100 µM (inactive) in each case. For the same compound, the GI50 in experiment [8] is > 100 µM (inactive); in [10], 52.6 µM; in experiment [11], > 89.1 µM (inactive); in experiment [12] it was > 73.8 µM (inactive); in experiment [13], > 100 µM (inactive); in experiment [14], > 100 µM (inactive). In addition, the GI50 was > 100 µM (inactive) in experiment [15]; > 100 µM (inactive) in experiment [17]; > 62.7 µM (inactive) in experiment [18]; 66.4 µM (inactive) in experiment [19]; > 100 µM (inactive) in [20].
As for `CSc1cc(=O)n2c3ccccc3c3ccnc1c32`, the GI50 is 97.1 µM (inactive) in experiment [1]; > 86.7 µM (inactive) in experiment [2]; > 100 µM (inactive) in experiment [3]; > 64.3 µM (inactive) in experiment [4]; > 100 µM (inactive) in [5]; > 100 µM (inactive) in experiment [7]. Also, the GI50 is 35.5 µM (inactive) in experiment [8]; > 91.4 µM (inactive) in [9]; 39.7 µM in experiment [10]; > 100 µM (inactive) in experiment [11]; > 100 µM (inactive) in experiment [12]; > 82.2 µM (inactive) in experiment [13]. Further, the GI50 is 25.7 µM (inactive) in experiment [15]; 24.4 µM (inactive) in [17]; > 100 µM (inactive) in experiment [18]; > 100 µM (inactive) in experiment [19]; 25.6 µM (inactive) in experiment [20].
In the case of `CCCCCCCCCCCCCCCc1ccc(OCC(O)CO)cc1` (stereo not drawn), the GI50 in experiment [1] was > 100 µM (inactive); in [2], 22.4 µM (inactive); in experiment [3], 17.8 µM (inactive); in [4], 40.1 µM (inactive); in [5] it was 23.6 µM (inactive); in experiment [6], > 100 µM (inactive). In addition, the GI50 was 29.7 µM (inactive) in experiment [7]; 47.1 µM (inactive) in experiment [8]; 89.5 µM (inactive) in experiment [9]; 81.8 µM in [10]; 23 µM (inactive) in experiment [11]; > 100 µM (inactive) in experiment [12]. Besides, the GI50 is 17.2 µM (inactive) in [13]; 31.6 µM (inactive) in experiment [14]; 31.3 µM (inactive) in [15]; 17.9 µM (inactive) in [16]; 31.9 µM (inactive) in [17]; 27.7 µM (inactive) in experiment [18]. The GI50 in [19] is > 100 µM (inactive); in [20], 99.3 µM (inactive).
Consider `OCC(O)COc1ccc(Br)cc1` (stereo not drawn), for which the GI50 in [1], in experiment [2], in [3], in experiment [4], in experiment [5] and in experiment [6] was > 100 µM (inactive) in each case. Also, the GI50 is > 100 µM (inactive) in experiment [7]; > 100 µM (inactive) in [8]; > 100 µM (inactive) in experiment [9]; more than 100 µM in [10]; > 100 µM (inactive) in experiment [11]; > 100 µM (inactive) in [13]. In addition, the GI50 in experiment [14], in experiment [15], in experiment [16], in experiment [17], in [18] and in experiment [19] was > 100 µM (inactive) throughout. In experiment [20], the GI50 is > 100 µM (inactive).
